Assay results as given in patent publication EP3513780A1, “METHOD FOR SUPPORTING EPIDERMAL STEM CELL SELF-RENEWAL” (DSM IP Assets B.V., priority 2018, dated 2019).

test system: hsa-miR-720; experiment: microRNA expression (qPCR) in NHEK: hsa-miR-720; conditions: 24 hours, 0.1 mM (Vitamin B12 0.03 mM), vs Control group, normalized to RNU44, N=4, negative = decrease
Protocol: (§1) The study was conducted to understand how different vitamin B supplements influence microRNA and mRNA gene expression in keratinocytes. MicroRNAs are small, non-coding RNA molecules that function as negative regulators of gene expression. […] The current study was performed using normal human epidermal keratinocytes [NHEK].
(§2) All Test Materials were diluted in DermaLife K medium.
(§3) An initial cytotoxicity screening was performed to evaluate a range of Test Material concentrations prior to the microRNA analysis. […] Pyridoxine HCl, 0.1 mM • 4. Vitamin B12, 0.03mM • 5. Niacinamide, 0.1 mM • 6.
(§4) Unpaired t-tests (p<0.05, N=4) were performed to compare each Test Material group to the Control group. […] An endogenous control microRNAs (RNU44) was used for normalization.
(§5) Vitamin B2, 0.1 mM • 2. D-panthenol, 0.1 mM • 3. Pyridoxine HCl, 0.1 mM • 4. Vitamin B12, 0.03mM • 5. Niacinamide, 0.1 mM • 6. Folic Acid, 0.1 mM
(§6) Fresh media replacements were performed every other day.
(§7) The preamplification reaction was run for 12 cycles.
(§8) qPCR Processing: qPCR reactions were run using validated Taqman® MicroRNA assays in a Custom OpenArray format. […] Each microRNA was assayed in duplicate.
(§9) Unpaired t-tests were carried out using StatMiner software.

Row | Compound | Changes in microRNA Expression of hsa-miR-720 (linear fold-change)
1 | CC(C)(CO)[C@@H](O)C(=O)NCCCO [D-Panthenol, (+)-(R)-2,4-Dihydroxy-N-(3-hydroxypropyl)-3,3-dimethylbutyramid] | -2.21 fold
2 | Nc1nc2ncc(CNc3ccc(C(=O)N[C@@H](CCC(=O)O)C(=O)O)cc3)nc2c(=O)[nH]1 [Folic acid] | -1.64 fold
3 | cobalamin [Vitamin B12] | -2.10 fold
4 | Cc1ncc(CO)c(CO)c1O.Cl [Pyridoxine HCl] | -1.84 fold
5 | Cc1cc2nc3c(=O)[nH]c(=O)nc-3n(C[C@H](O)[C@H](O)[C@H](O)CO)c2cc1C [Vitamin B2, riboflavin] | -1.93 fold

test system: hsa-miR-203; experiment: microRNA expression (qPCR) in NHEK: hsa-miR-203; conditions: 24 hours, 0.1 mM (Vitamin B12 0.03 mM), vs Control group, normalized to RNU44, N=4, negative = decrease
Protocol: as §1, §2, §3, §4, §5, §6, §7, §8, §9

Row | Compound | Changes in microRNA Expression of hsa-miR-203 (linear fold-change)
6 | CC(C)(CO)[C@@H](O)C(=O)NCCCO [D-Panthenol, (+)-(R)-2,4-Dihydroxy-N-(3-hydroxypropyl)-3,3-dimethylbutyramid] | -1.76 fold
7 | Nc1nc2ncc(CNc3ccc(C(=O)N[C@@H](CCC(=O)O)C(=O)O)cc3)nc2c(=O)[nH]1 [Folic acid] | -1.46 fold
8 | cobalamin [Vitamin B12] | -1.46 fold
9 | Cc1ncc(CO)c(CO)c1O.Cl [Pyridoxine HCl] | -1.78 fold
10 | Cc1cc2nc3c(=O)[nH]c(=O)nc-3n(C[C@H](O)[C@H](O)[C@H](O)CO)c2cc1C [Vitamin B2, riboflavin] | -1.96 fold

same assay, conditions: Homo sapiens, 24 h, read-out: Changes in microRNA Expression of hsa-miR-203 (linear fold-change)

Row | Compound | fold induction at 100 µM
11 | NC(=O)c1cccnc1 [Niacinamide, nicotinamide] | 1.03

test system: LCE3D; experiment: Gene expression (qPCR) in NHEK: LCE3D; format: cell-based, human; conditions: 24 hours, 0.1 mM (Vitamin B12 0.03 mM), normalized to HPRT1, n.s. = not statistically significant
Protocol: as §5, §2, §6
(§10) OpenArray format. […] Each gene was assayed in duplicate.
(§11) See the Endogenous Control Selection section for more details. Unpaired t-tests were carried out using StatMiner software.

Row | Compound | Linear Fold-Change Value, Each Group vs the Untreated Control: LCE3D
12 | CC(C)(CO)[C@@H](O)C(=O)NCCCO [D-Panthenol, (+)-(R)-2,4-Dihydroxy-N-(3-hydroxypropyl)-3,3-dimethylbutyramid] | -1.99 fold
13 | Nc1nc2ncc(CNc3ccc(C(=O)N[C@@H](CCC(=O)O)C(=O)O)cc3)nc2c(=O)[nH]1 [Folic acid] | -1.72 fold
14 | cobalamin [Vitamin B12] | -1.65 fold
15 | Cc1ncc(CO)c(CO)c1O.Cl [Pyridoxine HCl] | n.s.
16 | Cc1cc2nc3c(=O)[nH]c(=O)nc-3n(C[C@H](O)[C@H](O)[C@H](O)CO)c2cc1C [Vitamin B2, riboflavin] | 1.60 fold

test system: CALML5; experiment: Gene expression (qPCR) in NHEK: CALML5; format: cell-based, human; conditions: 24 hours, 0.1 mM (Vitamin B12 0.03 mM), normalized to HPRT1, n.s. = not statistically significant
Protocol: as §5, §2, §6, §10, §11

Row | Compound | Linear Fold-Change Value, Each Group vs the Untreated Control: CALML5
17 | CC(C)(CO)[C@@H](O)C(=O)NCCCO [D-Panthenol, (+)-(R)-2,4-Dihydroxy-N-(3-hydroxypropyl)-3,3-dimethylbutyramid] | -1.87 fold
18 | Nc1nc2ncc(CNc3ccc(C(=O)N[C@@H](CCC(=O)O)C(=O)O)cc3)nc2c(=O)[nH]1 [Folic acid] | -1.67 fold
19 | cobalamin [Vitamin B12] | -1.73 fold
20 | Cc1ncc(CO)c(CO)c1O.Cl [Pyridoxine HCl] | -1.90 fold
21 | Cc1cc2nc3c(=O)[nH]c(=O)nc-3n(C[C@H](O)[C@H](O)[C@H](O)CO)c2cc1C [Vitamin B2, riboflavin] | -1.24 fold

test system: KRT1; experiment: Gene expression (qPCR) in NHEK: KRT1; format: cell-based, human; conditions: 24 hours, 0.1 mM (Vitamin B12 0.03 mM), normalized to HPRT1, n.s. = not statistically significant
Protocol: as §5, §2, §6, §10, §11

Row | Compound | Linear Fold-Change Value, Each Group vs the Untreated Control: KRT1
22 | CC(C)(CO)[C@@H](O)C(=O)NCCCO [D-Panthenol, (+)-(R)-2,4-Dihydroxy-N-(3-hydroxypropyl)-3,3-dimethylbutyramid] | -4.68 fold
23 | Nc1nc2ncc(CNc3ccc(C(=O)N[C@@H](CCC(=O)O)C(=O)O)cc3)nc2c(=O)[nH]1 [Folic acid] | -3.27 fold
24 | cobalamin [Vitamin B12] | -2.42 fold
25 | Cc1ncc(CO)c(CO)c1O.Cl [Pyridoxine HCl] | -4.56 fold
26 | Cc1cc2nc3c(=O)[nH]c(=O)nc-3n(C[C@H](O)[C@H](O)[C@H](O)CO)c2cc1C [Vitamin B2, riboflavin] | -4.00 fold

test system: KLK7; experiment: Gene expression (qPCR) in NHEK: KLK7; format: cell-based, human; conditions: 24 hours, 0.1 mM (Vitamin B12 0.03 mM), normalized to HPRT1, n.s. = not statistically significant
Protocol: as §5, §2, §6, §10, §11

Row | Compound | Linear Fold-Change Value, Each Group vs the Untreated Control: KLK7
27 | CC(C)(CO)[C@@H](O)C(=O)NCCCO [D-Panthenol, (+)-(R)-2,4-Dihydroxy-N-(3-hydroxypropyl)-3,3-dimethylbutyramid] | -1.60 fold
28 | Nc1nc2ncc(CNc3ccc(C(=O)N[C@@H](CCC(=O)O)C(=O)O)cc3)nc2c(=O)[nH]1 [Folic acid] | -1.41 fold
29 | cobalamin [Vitamin B12] | n.s.
30 | NC(=O)c1cccnc1 [Niacinamide, nicotinamide] | n.s.
31 | Cc1ncc(CO)c(CO)c1O.Cl [Pyridoxine HCl] | -1.44 fold
32 | Cc1cc2nc3c(=O)[nH]c(=O)nc-3n(C[C@H](O)[C@H](O)[C@H](O)CO)c2cc1C [Vitamin B2, riboflavin] | -2.03 fold

test system: KRT10; experiment: Gene expression (qPCR) in NHEK: KRT10; format: cell-based, human; conditions: 24 hours, 0.1 mM (Vitamin B12 0.03 mM), normalized to HPRT1, n.s. = not statistically significant
Protocol: as §5, §2, §6, §10, §11

Row | Compound | Linear Fold-Change Value, Each Group vs the Untreated Control: KRT10
33 | CC(C)(CO)[C@@H](O)C(=O)NCCCO [D-Panthenol, (+)-(R)-2,4-Dihydroxy-N-(3-hydroxypropyl)-3,3-dimethylbutyramid] | -2.26 fold
34 | Nc1nc2ncc(CNc3ccc(C(=O)N[C@@H](CCC(=O)O)C(=O)O)cc3)nc2c(=O)[nH]1 [Folic acid] | -1.73 fold
35 | cobalamin [Vitamin B12] | n.s.
36 | NC(=O)c1cccnc1 [Niacinamide, nicotinamide] | n.s.
37 | Cc1ncc(CO)c(CO)c1O.Cl [Pyridoxine HCl] | -2.45 fold
38 | Cc1cc2nc3c(=O)[nH]c(=O)nc-3n(C[C@H](O)[C@H](O)[C@H](O)CO)c2cc1C [Vitamin B2, riboflavin] | -2.50 fold

test system: TP63; experiment: Gene expression (qPCR) in NHEK: TP63; conditions: 24 hours, 0.1 mM (Vitamin B12 0.03 mM), normalized to HPRT1, n.s. = not statistically significant
Protocol: Cell Culture, Cytotoxicity Screening: NHEK [purchased from Lifeline Cell Technologies] were cultured and maintained at 37°C with 5% CO2 using DermaLife K medium according to the manufacturer's recommendations. Two days prior to treatment, NHEK were seeded at a density of -20,000 cells per cm^2 in 24-well plates. Cultures were approximately 75% confluent at the time of treatment.
Stock solutions and final working concentrations of each Test Material were prepared: The following treatment groups were included in the study (N=4): • 1. Vitamin B2, 0.1 mM • 2. D-panthenol, 0.1 mM • 3. Pyridoxine HCl, 0.1 mM • 4. Vitamin B12, 0.03mM • 5. Niacinamide, 0.1 mM • 6. Folic Acid, 0.1 mM
All Test Materials were diluted in DermaLife K medium. NHEK cultured in DermaLife K medium without added supplements served as the Control group.
Treatment and Maintenance of Cultures: Maintenance medium (DermaLife K) was removed from each culture well and replaced with 500 µL (for 24-well cytotoxicity screening) or 2.0 mL (for 6-well gene expression screening) prewarmed Test Medium. Following application of Test Media, the cultures were returned to the incubator at 37°C with 5 % CO2 for 24 hours.
Treatment and Collection of Cell Culture for Gene Expression: Cultures were seeded at a concentration of 20,000 cells/cm^2 in a 6-well plate and incubated for three days at 37°C with 5 % CO2. Fresh media replacements were performed every other day. On the day of treatment, maintenance medium was replaced with test medium. Following a 24 hour exposure, test medium was removed and cell lysis was performed through the addition of 700uL Qiazol lysis buffer (Qiagen) to each well. Cell lysates were immediately collected and stored at -80°C.
RNA Isolation: Total RNA was isolated from frozen cell lysates using a Qiagen miRNeasy Mini kit following the manufacturer's instructions for cultured cells. Total RNA concentration and purity were determined using a Nanodrop 2000 spectrophotometer.
OpenArray format. OpenArrays were run in a Life Technologies QuantStudio 12K Flex instrument. Each gene was assayed in duplicate.
Data Analysis: qPCR data was imported into RealTime StatMiner software v4.2 for statistical analysis using the relative quantitation (RQ) method. […] Unpaired t-tests were carried out using StatMiner software. Statistically significant changes in gene expression (p<0.05) are reported. Linear fold-change data for each subject was calculated using Microsoft Excel.For RQ values >1.0: Linear fold-change value = RQ value For RQ values < 1.0:Linear ford−change value = −1/RQ value [formula]
Statistical Data Analysis Using Statminer Software: qPCR data is typically expressed in log scale and then converted to a linear fold change value. A log10RQ value of 1.0 is equivalent to a 10-fold change in gene expression. A log10RQ value of 0.3 is equivalent to a 2-fold change in gene expression. The log10RQ values have been converted to linear fold change values to simplify data interpretation.

Row | Compound | Linear Fold-Change Value, Each Group vs the Untreated Control: TP63
39 | CC(C)(CO)[C@@H](O)C(=O)NCCCO [D-Panthenol, (+)-(R)-2,4-Dihydroxy-N-(3-hydroxypropyl)-3,3-dimethylbutyramid] | 1.54 fold
40 | Nc1nc2ncc(CNc3ccc(C(=O)N[C@@H](CCC(=O)O)C(=O)O)cc3)nc2c(=O)[nH]1 [Folic acid] | 1.43 fold
41 | Cc1ncc(CO)c(CO)c1O.Cl [Pyridoxine HCl] | 1.55 fold
42 | Cc1cc2nc3c(=O)[nH]c(=O)nc-3n(C[C@H](O)[C@H](O)[C@H](O)CO)c2cc1C [Vitamin B2, riboflavin] | 1.34 fold

same assay, conditions: Homo sapiens, 24 h, read-out: Linear Fold-Change Value, Each Group vs the Untreated Control: TP63

Row | Compound | fold induction at 100 µM
43 | NC(=O)c1cccnc1 [Niacinamide, nicotinamide] | 1.21

test system: SPINK5; experiment: Gene expression (qPCR) in NHEK: SPINK5; format: cell-based, human; conditions: 24 hours, 0.1 mM (Vitamin B12 0.03 mM), normalized to HPRT1, n.s. = not statistically significant
Protocol: as §5, §2, §6, §10, §11

Row | Compound | Linear Fold-Change Value, Each Group vs the Untreated Control: SPINK5
44 | CC(C)(CO)[C@@H](O)C(=O)NCCCO [D-Panthenol, (+)-(R)-2,4-Dihydroxy-N-(3-hydroxypropyl)-3,3-dimethylbutyramid] | -2.00 fold
45 | Nc1nc2ncc(CNc3ccc(C(=O)N[C@@H](CCC(=O)O)C(=O)O)cc3)nc2c(=O)[nH]1 [Folic acid] | -1.79 fold
46 | cobalamin [Vitamin B12] | -1.63 fold
47 | NC(=O)c1cccnc1 [Niacinamide, nicotinamide] | n.s.
48 | Cc1ncc(CO)c(CO)c1O.Cl [Pyridoxine HCl] | -2.05 fold
49 | Cc1cc2nc3c(=O)[nH]c(=O)nc-3n(C[C@H](O)[C@H](O)[C@H](O)CO)c2cc1C [Vitamin B2, riboflavin] | n.s.
